These results are taken from patent publication US12098145B2 (Libra Therapeutics, Inc., priority 2022, dated 2024).

The assay deals with T1, TRPML1 (Homo sapiens, UniProt Q9GZU1).
T1 construct: expressed in transfected cells; host or cells: HEK T-REx cells stably expressing GCaMP6f and TRPML1
Kind of assay: Cellular TRPML1 assay (FLIPR, GCaMP6f calcium read-out). It counts as cell-based. Conditions: HEKT-REx/GCaMP6f/TRPML1 cells, FLIPR TETRA, kinetic response over 300 seconds; read-out: TRPML1 FLIPR pEC50 (converted). How it is done:
Example A: Cellular TRPML1 Assay
The final clone for the TRPML1 assay is HEKT-REx/GCaMP6f/TRPML1. GCaMP6f is a genetically encoded calcium indicator that is stably expressed in this cell line and used as a fluorescent read-out.
Experiments were performed in 384 MTP format. Cells are seeded at 15000 cells/well in 20 μl/well of Optimem+0.5% FBS without selection antibiotics. Twenty-four hours later, cells are assayed for the response to various compounds using the Ca^2+ sensitive GCaMP6f protein stably expressed in the cells as readout.
The experiment was performed in a 384-well format according to the following procedures: • 24 h after seeding, the cells were pre-incubated at room temperature for about 10 min. • Started the experiment at the FLIPR^TETRA by injecting 10 μL/w of 3× concentrated test compounds and controls in Ca^2+ free Tyrode's buffer. Monitored the kinetic response over a period of 300 seconds. • Final DMSO concentration: 0.5%
Data from FLIPR^TETRA measurements were analyzed with the Genedata Screener© software.

T1 sequence (Q9GZU1 whole entry): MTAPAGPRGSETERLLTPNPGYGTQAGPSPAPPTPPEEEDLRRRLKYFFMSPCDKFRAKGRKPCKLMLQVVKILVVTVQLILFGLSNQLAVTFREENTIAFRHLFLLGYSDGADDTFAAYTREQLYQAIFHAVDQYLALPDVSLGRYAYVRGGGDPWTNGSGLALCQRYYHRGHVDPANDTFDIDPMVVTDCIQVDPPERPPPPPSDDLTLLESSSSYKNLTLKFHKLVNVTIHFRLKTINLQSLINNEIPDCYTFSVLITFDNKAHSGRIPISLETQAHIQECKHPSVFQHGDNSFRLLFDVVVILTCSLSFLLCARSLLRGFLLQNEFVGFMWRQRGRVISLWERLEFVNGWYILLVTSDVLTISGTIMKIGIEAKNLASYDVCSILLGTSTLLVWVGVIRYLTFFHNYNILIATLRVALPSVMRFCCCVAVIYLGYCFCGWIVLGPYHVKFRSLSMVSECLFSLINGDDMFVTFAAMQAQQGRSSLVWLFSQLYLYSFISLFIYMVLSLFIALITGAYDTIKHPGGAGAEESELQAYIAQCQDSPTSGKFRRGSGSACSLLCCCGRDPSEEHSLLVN

On to `CC1(C)CN(c2nc(C(=O)Nc3cc(F)c(OC4CCCOC4)c(F)c3)c(CC(F)(F)F)o2)C1` (racemic) [Example 72, N-(3,5-difluoro-4-((tetrahydro-2H-pyran-3-yl)oxy)phenyl)-2-(3,3-dimethylazetidin-1-yl)-5-(2,2,2-trifluoroethyl)oxazole-4-carboxamide], for which the EC50 is 10 to 1000 nM.
As for `O=C(Nc1ccc(OC2CCCC2(F)F)c(F)c1)c1nc(N2Cc3ccccc3C2)oc1CC(F)(F)F` (centres unmarked) [Example 1, N-{4-[(2,2-difluorocyclopentyl)oxy]-3-fluorophenyl}-2-(2,3-dihydro-1H-isoindol-2-yl)-5-(2,2,2-trifluoroethyl)-1,3-oxazole-4-carboxamide], the EC50 was 10000 to 100000 nM.
With `N#CC1CN(c2nc(C(=O)Nc3ccc(OC4CCCC4(F)F)c(F)c3)c(CC(F)(F)F)o2)C1` (centres unmarked) [Example 2, 2-(3-cyanoazetidin-1-yl)-N-{4-[(2,2-difluorocyclopentyl)oxy]-3-fluorophenyl}-5-(2,2,2-trifluoroethyl)-1,3-oxazole-4-carboxamide], the EC50 is 1000 to 10000 nM.
Take `O=C(Nc1ccc(OC2CCCC2(F)F)c(F)c1)c1nc(N2CCc3ccccc32)oc1CC(F)(F)F` (centres unmarked) [Example 5, N-(4-((2,2-difluorocyclopentyl)oxy)-3-fluorophenyl)-2-(indolin-1-yl)-5-(2,2,2-trifluoroethyl)oxazole-4-carboxamide]: the EC50 was 1000 to 10000 nM.
On to `COCC1CCN(c2nc(C(=O)Nc3ccc(OC4CCCC4(F)F)c(F)c3)c(CC(F)(F)F)o2)C1` (centres unmarked) [Example 7, N-(4-((2,2-difluorocyclopentyl)oxy)-3-fluorophenyl)-2-(3-(methoxymethyl)pyrrolidin-1-yl)-5-(2,2,2-trifluoroethyl)oxazole-4-carboxamide], for which the EC50 is 1000 to 10000 nM.
As for `COC1CN(c2nc(C(=O)Nc3ccc(OC4CCCC4(F)F)c(F)c3)c(CC(F)(F)F)o2)C1` (centres unmarked) [Example 8, N-(4-((2,2-difluorocyclopentyl)oxy)-3-fluorophenyl)-2-(3-methoxyazetidin-1-yl)-5-(2,2,2-trifluoroethyl)oxazole-4-carboxamide], the EC50 was 1000 to 10000 nM.
The figure for `O=C(Nc1ccc(OC2CCCC2(F)F)c(F)c1)c1nc(N2C3CCC2CC3)oc1CC(F)(F)F` (centres unmarked) [Example 9, 2-{7-azabicyclo[2.2.1]heptan-7-yl}-N-{4-[(2,2-difluorocyclopentyl)oxy]-3-fluorophenyl}-5-(2,2,2-trifluoroethyl)oxazole-4-carboxamide] is 1000 to 10000 nM; for `O=C(Nc1ccc(OC2CCCC2(F)F)c(F)c1)c1nc(N2CC3C(C2)C3(F)F)oc1CC(F)(F)F` (centres unmarked) [Example 10, 2-{6,6-difluoro-3-azabicyclo[3.1.0]hexan-3-yl}-N-{4-[(2,2-difluorocyclopentyl)oxy]-3-fluorophenyl}-5-(2,2,2-trifluoroethyl)oxazole-4-carboxamide] it is 1000 to 10000 nM.
Regarding `O=C(Nc1ccc(OC2CCCC2(F)F)c(F)c1)c1nc(N2CCCC23CC3)oc1CC(F)(F)F` (centres unmarked) [Example 11, N-(4-((2,2-difluorocyclopentyl)oxy)-3-fluorophenyl)-2-(4-azaspiro[2.4]heptan-4-yl)-5-(2,2,2-trifluoroethyl)oxazole-4-carboxamide], the EC50 is 1000 to 10000 nM.
Regarding `O=C(Nc1ccc(OC2CCCC2(F)F)c(F)c1)c1nc(N2CC3CCOC3C2)oc1CC(F)(F)F` (centres unmarked) [Example 12, N-(4-((2,2-difluorocyclopentyl)oxy)-3-fluorophenyl)-2-(hexahydro-5H-furo[2,3-c]pyrrol-5-yl)-5-(2,2,2-trifluoroethyl)oxazole-4-carboxamide], the EC50 is 1000 to 10000 nM.
In the case of `O=C(Nc1ccc(OC2CCCC2(F)F)c(F)c1)c1nc(N2CC3(CCOCC3)C2)oc1CC(F)(F)F` (centres unmarked) [Example 14, N-(4-((2,2-difluorocyclopentyl)oxy)-3-fluorophenyl)-2-(7-oxa-2-azaspiro[3.5]nonan-2-yl)-5-(2,2,2-trifluoroethyl)oxazole-4-carboxamide], the EC50 is 1000 to 10000 nM.
`O=C(Nc1ccc(OC2CCCC2(F)F)c(F)c1)c1nc(N2CC(F)(F)C2)oc1CC(F)(F)F` (centres unmarked) [Example 16, 2-(3,3-difluoroazetidin-1-yl)-N-{4-[(2,2-difluorocyclopentyl)oxy]-3-fluorophenyl}-5-(2,2,2-trifluoroethyl)oxazole-4-carboxamide]: the EC50 is 10 to 1000 nM.
For the compound `O=C(Nc1ccc(OC2CCCC2(F)F)c(F)c1)c1nc(N2CC(C(F)(F)F)C2)oc1CC(F)(F)F` (centres unmarked) [Example 18, N-(4-((2,2-difluorocyclopentyl)oxy)-3-fluorophenyl)-5-(2,2,2-trifluoroethyl)-2-(3-(trifluoromethyl)azetidin-1-yl)oxazole-4-carboxamide], the EC50 is 10 to 1000 nM.
On to `O=C(Nc1ccc(OC2CCCC2(F)F)c(F)c1)c1nc(N2CC3CCCC3C2)oc1CC(F)(F)F` (centres unmarked) [Example 23, N-(4-((2,2-difluorocyclopentyl)oxy)-3-fluorophenyl)-2-(hexahydrocyclopenta[c]pyrrol-2(1H)-yl)-5-(2,2,2-trifluoroethyl)oxazole-4-carboxamide], for which the EC50 was 10 to 1000 nM.
For `CC(C)OC1CN(c2nc(C(=O)Nc3ccc(OC4CCCC4(F)F)c(F)c3)c(CC(F)(F)F)o2)C1` (centres unmarked) [Example 24, N-{4-[(2,2-difluorocyclopentyl)oxy]-3-fluorophenyl}-2-[3-(propan-2-yloxy)azetidin-1-yl]-5-(2,2,2-trifluoroethyl)oxazole-4-carboxamide], the EC50 was 1000 to 10000 nM.
For `O=C(Nc1ccc(N2CCCCC2)c(F)c1)c1nc(N2CCC3(CC2)CS(=O)(=O)C3)oc1CC(F)(F)F` [Example 25, 2-(2,2-dioxo-2-thia-7-azaspiro[3.5]nonan-7-yl)-N-[3-fluoro-4-(piperidin-1-yl)phenyl]-5-(2,2,2-trifluoroethyl) oxazole-4-carboxamide], the EC50 was 10000 to 100000 nM.
As for `O=C(Nc1ccc(N2CCCCC2)c(F)c1)c1nc(N2C[C@H]3CCO[C@H]3C2)oc1CC(F)(F)F` [Example 26, 2-[(3aR,6aR)-hexahydro-5H-furo[2,3-c]pyrrol-5-yl]-N-[3-fluoro-4-(piperidin-1-yl)phenyl]-5-(2,2,2-trifluoroethyl)oxazole-4-carboxamide], the EC50 was 1000 to 10000 nM.
The figure for `O=C(Nc1ccc(N2CCCCC2)c(F)c1)c1nc(N2CCC3(CC3)C2)oc1CC(F)(F)F` [Example 27, 2-{5-azaspiro[2.4]heptan-5-yl}-N-[3-fluoro-4-(piperidin-1-yl)phenyl]-5-(2,2,2-trifluoroethyl)-1,3-oxazole-4-carboxamide] is 1000 to 10000 nM.
For the compound `CC1CCCN1c1nc(C(=O)Nc2ccc(N3CCCCC3)c(F)c2)c(CC(F)(F)F)o1` (centres unmarked) [Example 29, N-(3-fluoro-4-(piperidin-1-yl)phenyl)-2-(2-methylpyrrolidin-1-yl)-5-(2,2,2-trifluoroethyl)oxazole-4-carboxamide], the EC50 is 1000 to 10000 nM.
As for `O=C(Nc1cc(F)c(OC2CC3C[C@H]3C2)c(F)c1)c1nc(N2CC3(C2)CC(F)(F)C3)oc1CC(F)(F)F` (stereo partly drawn) [Example 34, N-(4-(cis-bicyclo[3.1.0]hexan-3-yloxy)-3,5-difluorophenyl)-2-(6,6-difluoro-2-azaspiro[3.3]heptan-2-yl)-5-(2,2,2-trifluoroethyl)oxazole-4-carboxamide], the EC50 was 10 to 1000 nM.
Consider `O=C(Nc1cc(F)c(OC2CC3C[C@H]3C2)c(F)c1)c1nc(N2CCC3(COC3)C2)oc1CC(F)(F)F` (stereo partly drawn) [Example 35, N-(4-{cis-bicyclo[3.1.0]hexan-3-yloxy}-3,5-difluorophenyl)-2-{2-oxa-6-azaspiro[3.4]octan-6-yl}-5-(2,2,2-trifluoroethyl)oxazole-4-carboxamide], for which the EC50 was 10 to 1000 nM.
Consider `CC1(C)CN(c2nc(C(=O)Nc3cc(F)c(OC4CC5C[C@H]5C4)c(F)c3)c(CC(F)(F)F)o2)C1` (stereo partly drawn) [Example 37, N-(4-{cis-bicyclo[3.1.0]hexan-3-yloxy}-3,5-difluorophenyl)-2-(3,3-dimethylazetidin-1-yl)-5-(2,2,2-trifluoroethyl)oxazole-4-carboxamide], for which the EC50 was 10 to 1000 nM.
The figure for `O=C(Nc1cc(F)c(OC2CC3C[C@H]3C2)c(F)c1)c1nc(N2CC3CCCC3C2)oc1CC(F)(F)F` (stereo partly drawn) [Example 40, N-(4-{cis-bicyclo[3.1.0]hexan-3-yloxy}-3,5-difluorophenyl)-2-{octahydrocyclopenta[c]pyrrol-2-yl}-5-(2,2,2-trifluoroethyl)oxazole-4-carboxamide] is 10 to 1000 nM; for `O=C(Nc1cc(F)c(OC2CC3C[C@H]3C2)c(F)c1)c1nc(N2CC3(CCCC3)C2)oc1CC(F)(F)F` (stereo partly drawn) [Example 41, N-(4-(cis-bicyclo[3.1.0]hexan-3-yloxy)-3,5-difluorophenyl)-2-(2-azaspiro[3.4]octan-2-yl)-5-(2,2,2-trifluoroethyl)oxazole-4-carboxamide] it is 10 to 1000 nM.
On to `O=C(Nc1ccc(OCC(F)(F)F)c(F)c1)c1nc(N2CCCC2)oc1CC(F)(F)F` [Example 42, N-(3-fluoro-4-(2,2,2-trifluoroethoxy)phenyl)-2-(pyrrolidin-1-yl)-5-(2,2,2-trifluoroethyl)oxazole-4-carboxamide], for which the EC50 was 1000 to 10000 nM.
As to `COC1CCC(Oc2ccc(NC(=O)c3nc(N4CCCC4)oc3CC(F)(F)F)cc2F)C1` (centres unmarked) [Example 43, N-{3-fluoro-4-[(3-methoxycyclopentyl)oxy]phenyl}-2-(pyrrolidin-1-yl)-5-(2,2,2-trifluoroethyl)oxazole-4-carboxamide], the EC50 is 1000 to 10000 nM.
